According to publication PMC2893400 (Biomedical chromatography : BMC, 2010):

What was measured:
[1] = Stability of stock solutions in methanol at 4°C; assay type: physicochemical; settings: stock solution in methanol stored at 4°C, up to 7 days
[2] = Stability post extraction, reconstituted in methanol at room temperature; assay type: physicochemical; settings: kept at room temperature

| Compound | Degradation of stock solution [1] | Degradation reconstituted in methanol after recovery [2] |
| --- | --- | --- |
| CC(C)C[C@H]1C(=O)N2CCC[C@H]2[C@]2(O)O[C@](NC(=O)[C@@H]3C=C4c5cccc6[nH]c(Br)c(c56)C[C@H]4N(C)C3)(C(C)C)C(=O)N12 [BCT, bromocriptine] | began to degrade significantly after 3 days | – |
| O=C(CCCN1CCCN(c2ccc(Cl)cc2)CC1)c1ccc(F)cc1 [DAL, 4-[4-(4-Chlorophenyl)-1,4-diazepan-1-yl]-1-(4-fluorophenyl) butan-1-one] | no degradation after 7 days | no degradation |
| O=C(CCCN1CC=C(n2c(=O)[nH]c3ccccc32)CC1)c1ccc(F)cc1 [DRO, droperidol] | no degradation after 7 days | no degradation |
